Reference: the Deep4Chem optical property database
Blank lines part the entries; values can stand above or below the compound they belong to.

Assay: solvent given as SMILES

SMILES: CCCCC1=Cc2c3ccc4cccc5ccc(c6cc(-c7ccccc7)n(c26)P1(=O)c1ccccc1)c3c45 (configuration not stated)
absorption maximum (in C1CCCCC1): 430 nm
absorption maximum (in C1CCOC1): 430 nm
absorption maximum (in C1COCCO1): 430 nm
absorption maximum (in CC#N): 426 nm
absorption maximum (in CC(C)=O): 427 nm
absorption maximum (in CO): 426 nm
absorption maximum (in Cc1ccccc1): 433 nm
absorption maximum (in ClC(Cl)Cl): 431 nm
absorption maximum (in ClCCl): 430 nm

SMILES: CN(C)CCN(Cc1c2ccccc2c(CN(CCN(C)C)c2ccc([N+](=O)[O-])cc2[N+](=O)[O-])c2ccccc12)c1ccc([N+](=O)[O-])cc1[N+](=O)[O-]
absorption maximum (in C1CCCCC1): 340 nm
absorption maximum (in C1CCOC1): 351 nm
absorption maximum (in CC#N): 347 nm
absorption maximum (in CC(C)=O): 352 nm
absorption maximum (in CCO): 341 nm
absorption maximum (in CN(C)C=O): 340 nm
absorption maximum (in CO): 341 nm
absorption maximum (in ClC(Cl)Cl): 342 nm

SMILES: F[B-]1(F)OC(c2ccccc2)=Nc2sc(-c3ccccc3)n[n+]21
absorption maximum (in C1CCOC1): 332 nm
absorption maximum (in CC#N): 330 nm
absorption maximum (in CCO): 328 nm
absorption maximum (in CCOC(C)=O): 331 nm
absorption maximum (in Cc1ccccc1): 337 nm
absorption maximum (in ClC(Cl)Cl): 335 nm
absorption maximum (in ClCCl): 333 nm

SMILES: CCCC1=CC2=C(c3c(C)cc(C)cc3C)c3cc(CCC)c(-c4ccc5ccc6cccc7ccc4c5c67)n3[B-](F)(F)[N+]2=C1c1ccc2ccc3cccc4ccc1c2c34
absorption maximum (in ClC(Cl)Cl): 562 nm

SMILES: C[Si](C)(C)C#Cc1cc2ccc3cc(C#C[Si](C)(C)C)cc4ccc(c1)c2c34
absorption maximum (in Cc1ccccc1): 407 nm

SMILES: CC1(C)c2ccccc2N(c2ccc(-c3cc(-c4ccccc4)nc(-c4ccccc4)n3)cc2)c2ccccc21
absorption maximum (in Cc1ccccc1): 374.95 nm

SMILES: CCCCN1c2ccccc2Sc2cc(/C=C\c3cc(=O)oc4ccc(C)cc34)ccc21
absorption maximum (in ClC(Cl)Cl): 423 nm

SMILES: CC1(C)c2ccccc2N(c2ccccc2)c2ccc(-c3ccc(-c4ccc5c(c4)C(C)(C)c4ccccc4N5c4ccccc4)c4nsnc34)cc21
absorption maximum (in Cc1ccccc1): 475.42 nm

SMILES: COc1cc(OC)c2cc(-c3ccc(-c4cc5c(OC)cc(OC)cc5oc4=O)cc3)c(=O)oc2c1
absorption maximum (in ClC(Cl)Cl): 372 nm

SMILES: c1ccc2c(c1)Nc1ccccc1B2c1c2ccccc2cc2ccccc12
absorption maximum (in ClCCl): 394 nm
absorption maximum (in c1ccccc1): 394 nm

SMILES: c1ccc(N(c2ccccc2)c2ccc(-c3cnc(-c4ccc(N(c5ccccc5)c5ccccc5)cc4)s3)cc2)cc1
absorption maximum (in CO): 398 nm

SMILES: N#Cc1nn(-c2c(Cl)cccc2Cl)nc1N1CCCC1
absorption maximum (in CC#N): 317 nm

SMILES: CCCCN1C(=S)c2cccc3c(OC)ccc(c23)C1=S
absorption maximum (in CC#N): 476 nm
absorption maximum (in CS(C)=O): 483 nm
absorption maximum (in Cc1ccccc1): 468 nm

SMILES: CCOC(=O)C(C(=O)OCC)C1=[N+]2C(=C(c3ccc(C)cc3)c3ccc(Cl)n3[B-]2(F)F)C=C1
absorption maximum (in C1CCCCC1): 514 nm
absorption maximum (in C1CCOC1): 511 nm
absorption maximum (in CCOC(C)=O): 509 nm
absorption maximum (in CO): 508 nm
absorption maximum (in Cc1ccccc1): 515 nm
absorption maximum (in ClC(Cl)Cl): 513 nm

SMILES: CCC1=[N+]2c3c(c4ccc(Oc5c(C)cc(C)cc5C)c5cc6c(Oc7c(C)cc(C)cc7C)ccc7c8cc(CC)n(c8c3c(c54)c67)[B-]2(F)F)=C1
absorption maximum (in Cc1ccccc1): 867 nm

SMILES: F[B-]1(F)n2cccc2C(c2c3ccccc3cc3ccccc23)=C2C=CC=[N+]21
absorption maximum (in CC#N): 502 nm
absorption maximum (in CCCCCC): 505 nm
absorption maximum (in CCO): 503 nm
absorption maximum (in CN(C)C=O): 506 nm
absorption maximum (in Cc1ccccc1): 508 nm
absorption maximum (in ClCCl): 506 nm

SMILES: N#Cc1cc2ccc(cc2)c2cccc3cccc(c4ccc(cc4)cc(C#N)c4ccc(cc4)c4cccc5cccc(c6ccc1cc6)c54)c32
absorption maximum (in Cc1ccccc1): 350 nm

SMILES: O=P(c1ccccc1)(c1ccccc1)n1c2ccccc2c2cc(-n3c4ccccc4c4ccccc43)ccc21
absorption maximum (in C1CCOC1): 340 nm

SMILES: O=C1c2cccc3cc4ccccc4c(c23)C(=O)N1Cc1ccccn1
absorption maximum (in C1CCOC1): 432 nm
absorption maximum (in CCCCCC): 427 nm
absorption maximum (in CCO): 436 nm
absorption maximum (in Cc1ccccc1): 435 nm
absorption maximum (in ClCCl): 437 nm

SMILES: CC1(C)c2ccccc2N(c2ccc(-c3ccc4c(c3)c3cc(-c5ccc(N6c7ccccc7C(C)(C)c7ccccc76)cc5)ccc3c3nc(C#N)c(C#N)nc43)cc2)c2ccccc21
absorption maximum (in Cc1ccccc1): 405 nm

SMILES: c1ccc2c(c1)-c1ccccc1C21c2ccccc2-c2sc3c(c21)C1(c2ccccc2-c2ccccc21)c1ccccc1-3
absorption maximum (in C1CCOC1): 373 nm

SMILES: CC(C)(C)c1ccc2c(c1)c1cc(C(C)(C)C)ccc1n2-c1ccccc1-c1nc(-c2ccccc2-n2c3ccc(C(C)(C)C)cc3c3cc(C(C)(C)C)ccc32)nc(-c2ccccc2P(=O)(c2ccccc2)c2ccccc2)n1
absorption maximum (in C1CCOC1): 343.17 nm
absorption maximum (in CC#N): 340.7 nm
absorption maximum (in CC(C)=O): 343.17 nm
absorption maximum (in CN(C)C=O): 343.17 nm
absorption maximum (in Cc1ccccc1): 340.7 nm
absorption maximum (in ClC(Cl)Cl): 343.17 nm
absorption maximum (in ClCCl): 343.17 nm

SMILES: CCN(CC)c1ccc2nc3c4ccccc4c(=O)cc-3oc2c1
absorption maximum (in C1COCCO1): 519 nm
absorption maximum (in CC#N): 535 nm
absorption maximum (in CC(C)=O): 533 nm
absorption maximum (in CCCCCC): 508 nm
absorption maximum (in CCO): 549 nm
absorption maximum (in CCOC(C)=O): 524 nm
absorption maximum (in CO): 553 nm
absorption maximum (in CS(C)=O): 552 nm
absorption maximum (in Cc1ccccc1): 524 nm
absorption maximum (in ClCCl): 539 nm

SMILES: c1ccc(-c2nn(-c3ccccc3)c3nc4ccccc4cc23)cc1
absorption maximum (in C1CCCCC1): 401.45 nm
absorption maximum (in C1CCOC1): 398.57 nm
absorption maximum (in CC#N): 396.83 nm
absorption maximum (in CC(C)=O): 396.04 nm
absorption maximum (in CCCCCl): 398.72 nm
absorption maximum (in CCCCOCCCC): 398.57 nm
absorption maximum (in CN(C)C=O): 397.93 nm

SMILES: Cc1ccc(-n2c(-c3ccccc3N)nc3c4ccccc4c4ccccc4c32)cc1
absorption maximum (in Cc1ccccc1): 311 nm

SMILES: CCOC(=O)CCCCCn1c2ccc(N)cc2c(=O)c2cc3c(cc21)c(=O)c1cc(N)ccc1n3CCCCCC(=O)OCC
absorption maximum (in ClCCl): 574 nm

SMILES: COc1ccc(C2=C(c3ccc(C)cc3)C(c3ccccc3)=[N+]3C2=Nc2c(-c4ccc(OC)cc4)c(-c4ccc(C)cc4)c(-c4ccccc4)n2[B-]3(F)F)cc1
absorption maximum (in Cc1ccccc1): 656 nm

SMILES: COc1ccc(C2=CC(c3ccc(OC)cc3)=[O+][B-](C(C)=O)(C(C)=O)O2)cc1
absorption maximum (in CC#N): 410 nm
absorption maximum (in ClC(Cl)(Cl)Cl): 405 nm

SMILES: CCCCOC(=O)/C(C#N)=C1\C(=CC2=[N+](C)c3ccccc3C2(C)C)C([O-])=C1C=C1N(C)c2ccccc2C1(C)C
absorption maximum (in ClC(Cl)Cl): 691 nm

SMILES: COc1cc(OC)cc(C2=C3C(C)=C(I)C(C)=[N+]3[B-](F)(F)n3c(C)c(I)c(C)c32)c1
absorption maximum (in CS(C)=O): 538 nm

Now from value to compound:

absorption maximum (in CC#N): 500 nm
absorption maximum (in CCO): 499 nm
absorption maximum (in CN(C)C=O): 515 nm
absorption maximum (in O): 497 nm
SMILES: Nc1ccc2c(-c3ccccc3C(=O)[O-])c3ccc(=[NH2+])cc-3oc2c1

absorption maximum (in C1CCCCC1): 593 nm
absorption maximum (in CCOC(C)=O): 596 nm
SMILES: CC1=[N+]2C(=C(c3ccc(N(c4ccccc4)c4ccccc4)cc3)c3ccc(C)n3[B-]2(F)F)C=C1c1cc2n(c1)[B-](F)(F)[N+]1=CC=CC1=C2c1c(C)cc(C)cc1C

absorption maximum (in O): 500 nm
SMILES: CC[n+]1nc2cc3c4c(c2c2cc(C)ccc21)CCCN4CCC3

absorption maximum (in ClCCl): 387 nm
SMILES: O=P1(c2ccccc2)C(c2ccccc2)=Cc2cc3ccccc3cc21 (configuration not stated)

absorption maximum (in CC#N): 473 nm
absorption maximum (in CCCCCC): 514 nm
absorption maximum (in CCOC(C)=O): 480 nm
absorption maximum (in CO): 479 nm
absorption maximum (in ClCCl): 486 nm
SMILES: F[B-]1(F)n2cccc2C(c2ccccc2)=C2C=CC(N3CCOCC3)=[N+]21

absorption maximum (in C1CCCCC1): 613 nm
absorption maximum (in CCOC(C)=O): 607 nm
absorption maximum (in CO): 605.5 nm
SMILES: Cc1ccccc1C1=C2C=c3c(oc4c3ccc3ccccc34)=[N+]2[B-](F)(F)n2c1cc1c3ccc4ccccc4c3oc12

absorption maximum (in ClCCl): 376 nm
SMILES: C[Si]1(C)O[Si](C)(C)c2cc3nc4ccc([N+](=O)[O-])cc4c(-c4ccccc4)c3cc2[Si](C)(C)O1

absorption maximum (in CC#N): 324 nm
absorption maximum (in ClCCl): 336 nm
SMILES: CNC(=O)[C@H](C)NC(=O)c1cccc2c1C#Cc1c(NC(=O)[C@@H](NC(C)=O)C(C)C)cccc1OCCCO2

absorption maximum (in CC#N): 565 nm
absorption maximum (in CN(C)C=O): 571 nm
absorption maximum (in ClCCl): 570 nm
SMILES: CCN(CC)c1ccc(/C=N/C(C#N)=C(C#N)/N=C/c2ccc(N(CC)CC)cc2O)c(O)c1

absorption maximum (in ClC(Cl)Cl): 408.16 nm
SMILES: CCCCCCn1c2cc(/C=C/c3cccs3)ccc2c2ccc(/C=C/c3cccs3)cc21

absorption maximum (in ClCCl): 549 nm
SMILES: CCCCCCn1c(=O)c2c3[nH]c4cc5sc6c([nH]c5cc4sc3c3c(=O)n(CCCCCC)c(=O)c3c2c1=O)c1c(=O)n(CCCCCC)c(=O)c1c1c(=O)n(CCCCCC)c(=O)c61

absorption maximum (in C1CCCCC1): 330 nm
absorption maximum (in CO): 330 nm
SMILES: Clc1ccc(/C=C(\c2ccccc2)c2nc3ccccc3o2)cc1

absorption maximum (in C1COCCO1): 463 nm
absorption maximum (in CC(C)O): 485 nm
absorption maximum (in CCCCO): 490 nm
absorption maximum (in CCCO): 487 nm
absorption maximum (in CCO): 484 nm
absorption maximum (in CO): 479 nm
absorption maximum (in CS(C)=O): 476 nm
absorption maximum (in ClC(Cl)Cl): 496 nm
absorption maximum (in ClCCl): 513 nm
absorption maximum (in c1ccccc1): 477 nm
SMILES: CCC[n+]1ccc(/C=C/c2ccc(N(C)C)cc2)cc1

absorption maximum (in C1CCCCC1): 392 nm
absorption maximum (in CO): 397 nm
absorption maximum (in CS(C)=O): 397 nm
absorption maximum (in ClC(Cl)Cl): 397 nm
absorption maximum (in c1ccccc1): 396 nm
SMILES: CCC1=C(C)C(=O)n2c1cc1[nH]c(C(=O)OC(C)(C)C)c(C)c1c2=O

absorption maximum (in ClCCl): 360 nm
SMILES: COc1ccc(-c2cnc(/C=C/c3ccc(OC)c(OC)c3)o2)cc1

absorption maximum (in CC#N): 307 nm
SMILES: C(=C\c1ccccc1)/c1ccccc1

absorption maximum (in CCO): 508 nm
absorption maximum (in CS(C)=O): 494 nm
absorption maximum (in O): 592 nm
SMILES: CC1(C)C(/C=C/C=C/c2cc3ccc(O)cc3oc2=O)=[N+](CCCS(=O)(=O)[O-])c2ccc(S(=O)(=O)O)cc21

absorption maximum (in ClCCl): 464 nm
SMILES: CN(C)c1ccc(C2=C3C=C(c4ccc(C=O)cc4)S[C@]34c3ccccc3[C@H]2c2ccccc24)cc1

absorption maximum (in ClC(Cl)Cl): 346 nm
SMILES: c1ccc2c(c1)oc1nc3oc4ccc(-n5c6ccccc6c6ccccc65)cc4c3cc12

absorption maximum (in C1CCCCC1): 409 nm
absorption maximum (in CC#N): 409 nm
absorption maximum (in CO): 407 nm
absorption maximum (in ClCCl): 412 nm
SMILES: COc1c2ccccc2c(OC)c2c1c1cccc(OC)c1n2C
